The text below walks through data of article PMC6804193, “Extending the Inhibition Profiles of Coumarin-Based Compounds Against Human Carbonic Anhydrases: Synthesis, Biological, and In Silico Evaluation” (Molecules, 2019).

Where two headings read alike, the source gives them in different places.

Common to all, as to assay: stopped-flow CO2 hydrase assay
Format in all cases: biochemical

The target in assay [1] is T1, hCA II (Homo sapiens, UniProt P00918).
T1 construct: gene CA2; recombinant, obtained in-house; cytosolic isoform
An excerpt:
stopped-flow CO2 hydrase assay on hCA II

Assay [2] addresses T2, hCA I (Homo sapiens, UniProt P00915).
T2 construct: gene CA1; recombinant, obtained in-house; cytosolic isoform
The source says: stopped-flow CO2 hydrase assay on hCA I

Assay [3] deals with T3, hCA IX (Homo sapiens, UniProt Q16790).
T3 construct: gene CA9; recombinant, obtained in-house
An excerpt: stopped-flow CO2 hydrase assay on hCA IX

Assay [4] has as its target T4, hCA XII (Homo sapiens, UniProt O43570).
T4 construct: gene CA12; recombinant, obtained in-house
To be noted: read-out: KI^* (nM) / hCA II.

The target of assay [5] is T4, hCA XII. As to conditions: read-out: KI^* (nM) / hCAXII. An excerpt:
stopped-flow CO2 hydrase assay on hCA XII

[6] abbreviates: CO2 […], […] Hepes pH […] Na2SO4, […] h preincubation at room temperature (prodrug inhibitors).

T4 sequence (O43570 25-354): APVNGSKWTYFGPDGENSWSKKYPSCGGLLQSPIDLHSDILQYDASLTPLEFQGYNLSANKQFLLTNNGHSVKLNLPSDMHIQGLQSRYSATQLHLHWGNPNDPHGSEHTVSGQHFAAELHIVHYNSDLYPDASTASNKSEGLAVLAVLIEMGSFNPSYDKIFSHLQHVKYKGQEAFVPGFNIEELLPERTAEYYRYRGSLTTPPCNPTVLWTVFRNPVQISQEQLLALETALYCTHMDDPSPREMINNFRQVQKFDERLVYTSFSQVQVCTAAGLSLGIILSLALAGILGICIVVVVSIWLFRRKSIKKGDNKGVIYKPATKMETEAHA
T2 sequence (P00915 2-261): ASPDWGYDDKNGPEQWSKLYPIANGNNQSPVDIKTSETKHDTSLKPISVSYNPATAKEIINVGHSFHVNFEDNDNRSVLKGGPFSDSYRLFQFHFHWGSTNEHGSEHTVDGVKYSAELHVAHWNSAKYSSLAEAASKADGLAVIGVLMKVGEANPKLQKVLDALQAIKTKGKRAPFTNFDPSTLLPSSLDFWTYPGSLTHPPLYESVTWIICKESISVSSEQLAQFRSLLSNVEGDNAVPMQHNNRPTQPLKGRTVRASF

Regarding `COc1ccc(C2CC(=O)Oc3ccc(C(C)=O)c(O)c32)cc1OCCc1ccc2c(c1)CCO2` (racemic) [compound 5, 6-Acetyl-4-(3-(2-(2,3-dihydrobenzofuran-5-yl)ethoxy)-4-methoxyphenyl)-5-hydroxychroman-2-one], the Ki in assay [1] was greater than 10000 nM; in assay [2], greater than 10 µM; in assay [3] it was 172 nM; in assay [4], greater than 10000 nM.

For the compound `COc1cc(C2CC(=O)Oc3ccc(C(C)=O)c(O)c32)ccc1O` (racemic) [compound 6, 6-Acetyl-5-hydroxy-4-(4-hydroxy-3-methoxyphenyl)chroman-2-one], the Ki in assay [1] is greater than 10000 nM; in assay [2], greater than 10 µM; in assay [3], 189 nM; in assay [4], greater than 10000 nM.

In the case of `CC(=O)c1ccc2c(c1O)C(c1ccccc1OCc1ccccn1)CC(=O)O2` (racemic) [compound 7, 6-Acetyl-5-hydroxy-4-(2-(pyridin-2-ylmethoxy)phenyl)chroman-2-one], the Ki in assay [1] is greater than 10000 nM; in assay [2], greater than 10 µM; in assay [3] it was 139 nM; in assay [4], greater than 10000 nM.

With `COc1ccc2occ(C3CC(=O)Oc4ccc(C(C)=O)c(O)c43)c(=O)c2c1` (racemic) [compound 8, 3-(6-Acetyl-5-hydroxy-2-oxochroman-4-yl)-6-methoxy-4H-chromen-4-one], the Ki in assay [1] is greater than 10000 nM; in assay [2], greater than 10 µM; in assay [3], 175 nM; in assay [4], greater than 10000 nM.

Consider `CC(=NO)c1c(OCc2ccc(Cl)cc2)ccc2c(C)cc(=O)oc12` [compound 1, 7-((4-Chlorobenzyl)oxy)-8-(1-(hydroxyimino)ethyl)-4-methyl-2H-chromen-2-one], for which the Ki in assay [1] (setting [6]) is greater than 10000 nM; in assay [5] (setting [6]), 558 nM; in assay [2] (setting [6]), greater than 10 µM; in assay [3] (setting [6]), 49.3 nM.

On to `Cc1c(O)c(CN(C)C)cc2c(-c3cc4ccccc4oc3=O)cc(=O)oc12` [compound 2, 6’-((Dimethylamino)methyl)-7’-hydroxy-8’-methyl-2H,2’H-[3,4’-bichromene]-2,2’-dione], for which the Ki in assay [1] was greater than 10000 nM; in assay [2], greater than 10 µM; in assay [3], 85.6 nM; in assay [4], greater than 10000 nM.

For the compound `O=c1cc(-c2cc3ccc(O)cc3oc2=O)c2ccc(O)c(O)c2o1` [compound 3, 7,7’,8’-Trihydroxy-2H,2’H-[3,4’-bichromene]-2,2’-dione], the Ki in assay [1] is greater than 10000 nM; in assay [2], greater than 10 µM; in assay [3], 133 nM; in assay [4] it was greater than 10000 nM.

For the compound `CCOC(=O)CC(C1=Cc2ccccc2OC1)c1oc(CO)cc(=O)c1O` (stereo not drawn) [compound 4, Ethyl 3-(2H-chromen-3-yl)-3-(3-hydroxy-6-(hydroxymethyl)-4-oxo-4H-pyran-2-yl) propanoate], the Ki was greater than 10000 nM in assay [1], 467 nM in assay [5], greater than 10 µM in assay [2] and 243 nM in assay [3].

Consider `CCCc1cc2c(=O)c(-c3ccc4c(c3)OCCO4)coc2cc1OCc1cc(=O)oc2cc(C)cc(C)c12` [compound 9, coumarin 9], for which the Ki in assay [1] was greater than 10000 nM; in assay [2], greater than 10 µM; in assay [3], 171 nM; in assay [4] it was greater than 10000 nM.

Turning to `Cc1cc(=O)oc2c(C)c(O)c(C(=O)/C=C/N(C)C)cc12` [compound 10, coumarin 10], the Ki was greater than 10000 nM in assay [1], 604 nM in assay [5], greater than 10 µM in assay [2] and 25.7 nM in assay [3].

`O=C(Nc1ccc2oc(=O)ccc2c1)[C@@H]1CSC2c3ccccc3C(=O)N21` (stereo partly drawn) [compound 11, coumarin 11]: the Ki in assay [1] is greater than 10000 nM; in assay [5], 591 nM; in assay [2] it was greater than 10 µM; in assay [3], 9.4 nM.

`O=C(NN1C(=O)/C(=C/C2=Cc3ccccc3OC2)SC1=S)c1cccnc1` [compound 12, 2H-chromene 12]: the Ki in assay [1] was greater than 10000 nM; in assay [5], 432 nM; in assay [2], greater than 10 µM; in assay [3], 241 nM.
